Tests used:
[1] = test system: Lewis lung carcinoma (LLC1) tumors; test: Lewis lung carcinoma (LLC1) subcutaneous tumor model, tumor area growth and tumor mass; format: in vivo, C57BL/6J mice; parameters: Tumor Growth Rate (TGR): unit not given beside the values; conditions: for Tumor Mass (gm ± STE): LLC1 tumor bearing mice, IP dosing per Table 2, combinations in alternating regimen (chemotherapy days 2-4, 14-16; PMO days 6-12, 18-23), mass at euthanization; for Tumor Growth Rate (TGR): linear regression of change in tumor area day 14 to 25, slope ± standard deviation, IP dosing per Table 2, combinations in alternating regimen; for % of Saline TGR: tumor growth rate relative to saline group, combinations in alternating regimen; for antitumor effect / tumor growth (in words): single agent, or staggered (alternating) regimen with the PMO after chemotherapy
Experimental: Examples are described in Smith et al., 2000. The model is based on the transplantation of Lewis lung cells (LLC1), a highly tumorigenic lung carcinoma cell line, into syngeneic […] mice. LLC1 produce discernable tumors by day 4 when 200,000 cells are transplanted subcutaneously onto the right flanks of C57-BL mice. Therapeutic efficacy was evaluated based on daily caliper measurements of tumor length and width and tumor weights at the end of 25 day studies. A 20 base PMO antisense to c-myc mRNA (AVI-4126, SEQ ID NO:1) was evaluated for efficacy in the model. […] AVI-4126 was also administered i.p. (300 μg/mouse/day) in combination with chemotherapy. Co-administration of cisplatin (83 μg/mouse/day) on days 2-4 and 13-15 with AVI-4126 on days 2-8 and 13-19 had no additional effect on tumor growth inhibition versus cisplatin alone (Example 1).
Tumor cells. The Lewis lung cell line (LLC1) used in the studies described herein was derived from the Lewis lung carcinoma established in 1951 by Dr. M. R. Lewis and has been utilized for the evaluation of cancer chemotherapeutic agents Mayo, 1972; Bertram et al., 1980). Lewis lung carcinoma cells (ATCC, Manassas, Va.) were maintained in DMEF-12 medium supplemented with 10% fetal bovine serum, penicillin (100 units/mL), streptomycin (100 μg/mL), and amphotericin (0.25 μg/mL) at 37° C. in a 5% CO2/95% air humidified incubator. Cells were harvested as an approximately 70% confluent culture of log growth phase at the time of transplant and were injected as a cell suspension in media at a concentration of 200,000 cells per 100 μl injection.
Syngeneic mice. C57BL/6J mice (Simonsen, Gilroy, Calif.) weighing 22 to 24 g were housed in sterile plastic cages at the Laboratory Animal Resources Facility at Oregon State University (OSU), Corvallis, Oreg. Mice were given access to rodent chow (Harlan Teklad, Madison, Wis.) and tap water ad libitum and exposed to 12 hour light/dark cycles. All animal protocols conformed to the ethical guidelines of the 1975 Declaration of Helsinki and were approved by the ‘Institutional Animal Care and Use Committee’ of OSU.
Statistical Analysis. All data are reported as the mean ±SEM were determined by the computer program InStat2 (GraphPad, San Diego). The p values were calculated by InStat2 using ANOVA and the Tukey multiple comparison test. Graphs, linear regression, and slopes were generated using Prism v2.0 (GraphPad).
Tumor studies with AVI-4126 and Chemotherapy Following a 5 day acclimation period, C57BL/6J mice (Simonsen, Gilroy, CA) cared for as set forth above, were anesthetized with isoflurane, shaved, and injected subcutaneously in the right rear flank with approximately 200,000 viable LLC1 cells (study day 0). Injection sites were monitored daily to ensure that solid, homogeneous tumor growth was consistently obtained 4 days after LLC1 cell injection. Chemotherapy injections were prepared fresh daily before i.p injection (see Table 1). All PMO's and cisplatin (Sigma, St. Louis, Mo.) were dissolved in sterile, apyrogenic saline (Sigma) adjusted to an injection volume of 0.1 ml. A Taxol stock solution (6 mg/ml in Cremophore EL and ethanol, Bristol Myers Squibb, Syracuse, N.Y.) was diluted to 1 mg/ml in 1× PBS prior to injection. Etoposide (Sigma) stock solutions were prepared by dissolving in 70% ethanol at 11 mg/ml followed by dilution with saline to a final concentration of 5 mg/ml. 5-FU (Calbiochem) was dissolved in saline at a concentration of 12.5 mg/ml.
Animals were treated as described. Therapeutic efficacy was evaluated based on daily measurement of tumor area (length x width, cm^2) with digital calipers and tumor mass determined at the time of euthanization. Mice in all studies were euthanized by asphyxiation with CO2 on the final day of PMO treatments. […]

[2] = test system: c-myc protein; test: Immunoblot analysis of c-myc protein in LLC1 tumor lysates; format: in vivo, mouse; conditions: for effect on c-myc levels in tumor tissue (in words): compared to saline
Experimental: Immunoblot analysis of c-myc protein. All antibodies were obtained from Santa Cruz Biotechnology (Santa Cruz, Calif.). Three-hundred micrograms of LLC1 protein lysate was analyzed on a 5% SDS/acrylamide stacking gel with a 12% v/v sodium dodecylsulfate (SDS)/acrylamide separating gel. Gels were blotted, probed, and visualized according to standard Western blotting protocols. Membranes were probed with rabbit anti-mouse c-myc polyclonal antibodies N-262 (sc-764) or C-19 (sc-788) diluted 1:2000 in blocking buffer (Genotech) followed by goat-anti rabbit HRP-conjugated antibody (sc-2054). The relative amount of c-myc and actin protein was visualized by ECLplus (Amersham, Piscataway, N.J.) and analyzed on a Kodak 440 Image Station using 1 D Image Analysis software (Kodak, Rochester N.Y.). Membranes were then soaked in stripping buffer (Genotech) for 20 minutes at 25° C. and reprobed with a 1:2000 dilution of goat anti-mouse β-actin polyclonal antibody (sc-1616), which served as a protein loading control, followed by donkey anti-goat HRP-conjugated antibody (sc-2056).
An initial study was performed to determine AVI-4126 levels in the tumor and to evaluate sequence specific inhibition of c-myc protein levels. Tumor bearing mice 24 days post LLC1 transplant were given injections of either saline, AVI-4126 or scrambled control (100 μg/mouse IP). Tumors were excised 4 hours later and evaluated for AVI-4126 and analyzed by immunoblot for c-myc protein, as described below.
Animals were treated as described. Therapeutic efficacy was evaluated based on daily measurement of tumor area (length x width, cm^2) with digital calipers and tumor mass determined at the time of euthanization. Mice in all studies were euthanized by asphyxiation with CO2 on the final day of PMO treatments. Tumors were immediately removed, weighed and approximately 0.25 g tumor tissue was homogenized in 1.0 ml Tissue-PE lysis buffer (Genotech, St. Louis, Mo.) containing protease inhibitor cocktail tablets (Complete™ Mini EDTA-free, Boehringer-Mannheim) which were dissolved in the lysis buffer 30 minutes before tissue homogenization. Lysates were centrifuged at 15,000× g for 15 minutes at 4° C. and 150 μl aliquots of supernatant were combined 1:1 with electrophoresis sample buffer and boiled at 100° C. for 5 minutes.

[3] = parameters: species or system C57BL/6J mice; conditions: mouse, in vivo, ip
Experimental: HPLC detection of AVI-4126 in LLC1 tumor tissue. The presence of AVI-4126 in tumor tissue lysates (prepared 4 hours after a single injection of 100 μg of AVI-4126 into tumor bearing mice) was determined via a 5′-flouresceinyl DNA:AVI-4126 (FDNA:AVI-4126) duplex detection method developed at AVI BioPharma (Corvallis, Oreg.). Briefly, 500 ng of internal standard (10 μl of a […] of 0.025M Tris buffer, pH=8) of a 15mer internal PMO standard complementary to the FDNA probe (5′-GAGGGGCATCGTCGC-3′ (SEQ ID NO: 14)) was added to each tumor tissue lysate. The lysate was combined with 250 μl methanol and mixed thoroughly. The sample was centrifuged 10 minutes at 15,000× g and the supernatant was removed and heated to 70° C. for g 10 minutes. […]
The entire 100 μl sample was then analyzed for the presence of FDNA:AVI-4126 duplex using reverse phase HPLC with fluorescence detection. The sample was injected into a Dionex DNAPac PA-100 column (4×250) using a Varian HPLC pump (model 9010 inert) equipped with a fluorescence detector and Al-200 autosampler (100 μl injector loop volume). […] The pump gradient program was 90% A+10% B (0 min) and 55% A+45% B (20 min.) at a flow rate of 1.5 ml/min with fluorescence detection at a 494 nm (excitation) and 518 nm emission wavelengths. […]

[4] = ICP-MS detection and quantitation of platinum/cisplatin in LLC1 tumor tissue; format: in vivo, C57BL/6J mice; conditions: data not shown
Experimental: ICP-MS Detection and Quantitation of platinum/cisplatin. A 200 μL aliquot of tissue lysate (40 mg of LLC1 tumor tissue) was dissolved in 1.33 mL of aqua regia followed by a 10 fold dilution. The samples were then analyzed by ICP-MS technique for the presence of Pt according to the method of Long et al (16) by Anatek Labs (Moscow, ID).

[5] = single injection 100 μg/mouse IP, tumors excised 4 hours later, FIG. 5A

Molecule	Tumor Mass (gm ± STE) [1]	Tumor Growth Rate (TGR) [1]	% of Saline TGR [1]	further results
CC(=O)O[C@H]1C(=O)[C@@]2(C)[C@H]([C@H](OC(=O)c3ccccc3)[C@]3(O)C[C@H](OC(=O)[C@H](O)[C@@H](NC(=O)c4ccccc4)c4ccccc4)C(C)=C1C3(C)C)[C@]1(OC(C)=O)CO[C@@H]1C[C@@H]2O [Taxol, Paclitaxel]	1.827 ± 0.210 gm	0.234 ± 0.023	114.7%	–
N.N.[Cl][Pt][Cl] [cisplatin, cis-diamminedichloroplatinum]	0.550 ± 0.081 gm	0.101 ± 0.011	49.5%	necropsy appearance of tumors ([1]; cisplatin alone, and cisplatin plus co-administered AVI-4126): highly invasive and vascularized; antitumor effect / tumor growth (in words) [1]: significantly lower; effect on c-myc levels in tumor tissue (in words) [2]: no statistical difference
COc1cc([C@@H]2c3cc4c(cc3[C@@H](O[C@@H]3O[C@@H]5CO[C@@H](C)O[C@H]5[C@H](O)[C@H]3O)[C@H]3COC(=O)[C@H]23)OCO4)cc(OC)c1O [etoposide]	0.970 ± 0.244 gm	0.153 ± 0.025	75.0%	–
AVI-4126: 20 base PMO antisense to c-myc translation start site: ACGTTGAGGGGCATCGTCGC (antisense ACGTTGAGGGGCATCGTCGC; all phosphorodiamidate morpholino (PMO))	1.788 ± 0.651 gm	0.212 ± 0.031	103.9%	FDNA:AVI-4126 duplex fluorescence peak in tumor tissue lysate [3]: readily detectable; degradation of AVI-4126 in tumor tissue [3]: No evidence of degradation; antitumor effect / tumor growth (in words) [1]: failed to significantly reduce tumor growth; inhibition of c-myc levels compared to saline control, n-terminal antibody ([2]; band intensity normalized to β-actin, AVI-4126 alone 300 μg/mouse/day IP, FIG. 6A): 74%; inhibition of c-myc levels compared to saline control, c-terminal antibody ([2]; band intensity normalized to β-actin, AVI-4126 alone 300 μg/mouse/day IP, FIG. 6B): 61%; reduction of c-myc levels relative to saline control [2, 5]: 77%; reduction of c-myc levels relative to scrambled PMO control [2, 5]: 63%; effect of AVI-4126 administration on platinum levels in tumor tissue [4]: did not effect platinum levels
RAD51AS: control PMO, mouse RAD51 sequence: CAAGCTGCATTTGCATAGCCAT (antisense CAAGCTGCATTTGCATAGCCAT; all phosphorodiamidate morpholino (PMO))	1.193 ± 0.166 gm	0.198 ± 0.017	97.1%	–
p21AS: control PMO, mouse p21 sequence: CATCACCAGGATTGGACATGG (antisense CATCACCAGGATTGGACATGG; all phosphorodiamidate morpholino (PMO))	1.260 ± 0.389 gm	0.184 ± 0.030	90.2%	–
scrambled control PMO: c-myc antisense scramble control PMO: ACTGTGAGGGCGATCGCTGC (ACTGTGAGGGCGATCGCTGC; all phosphorodiamidate morpholino (PMO))	–	–	–	effect on c-myc levels in tumor tissue (in words) [2]: no effect

Source: patent publication US20030087861A1, “Combined approach to treatment of cancer using a c-myc antisense oligomer” (priority 2001, published 2003)
